According to ChEMBL document CHEMBL1909046, “DrugMatrix in vitro pharmacology data”:

Columns and labels:
[1] = target: 5-hydroxytryptamine receptor 4 (Cavia porcellus, UniProt O70528); assay type: cell membranes, Dunkin-Hartley, Striatum, Membrane; further: in other assays of this panel Not Active means under 50% inhibition at 10 µM
[2] = DRUGMATRIX: Interleukin IL-1 radioligand binding (ligand: [125I] interleukin 1beta); assay type: cell membranes, Membrane; settings: nih3t3; Not Active = under 50% inhibition at 10 µM
[3] = target: T1, Polyunsaturated fatty acid lipoxygenase ALOX15 (Oryctolagus cuniculus, UniProt P12530); test: biochemical; assay type: tissue-based, Reticulocytes;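 further: inhibition of 15-lipoxygenase enzyme activity measured with linoleic acid as the substrate; in other assays of this panel Not Active means under 50% inhibition at 10 µM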
T1 sequence (P12530 whole entry): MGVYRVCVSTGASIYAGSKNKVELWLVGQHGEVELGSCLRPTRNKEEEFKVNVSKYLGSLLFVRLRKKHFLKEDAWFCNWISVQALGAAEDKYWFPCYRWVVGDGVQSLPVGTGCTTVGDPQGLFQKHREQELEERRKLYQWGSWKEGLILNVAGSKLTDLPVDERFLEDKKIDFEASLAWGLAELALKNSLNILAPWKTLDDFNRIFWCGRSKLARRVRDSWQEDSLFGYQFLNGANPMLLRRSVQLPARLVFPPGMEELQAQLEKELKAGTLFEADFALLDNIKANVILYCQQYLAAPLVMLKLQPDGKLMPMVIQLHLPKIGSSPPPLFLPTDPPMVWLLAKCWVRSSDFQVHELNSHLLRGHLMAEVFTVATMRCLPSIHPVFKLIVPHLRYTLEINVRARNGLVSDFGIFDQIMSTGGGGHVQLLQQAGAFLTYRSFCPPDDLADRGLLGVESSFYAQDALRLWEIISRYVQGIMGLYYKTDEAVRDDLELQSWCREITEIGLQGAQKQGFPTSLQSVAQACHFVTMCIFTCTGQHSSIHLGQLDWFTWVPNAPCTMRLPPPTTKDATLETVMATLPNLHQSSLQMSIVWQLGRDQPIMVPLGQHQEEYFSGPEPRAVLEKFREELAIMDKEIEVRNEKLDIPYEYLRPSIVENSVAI

[4] = target: Kappa-type opioid receptor (Homo sapiens, UniProt P41145); test: DRUGMATRIX: Opiate kappa (OP2, KOP) radioligand binding (ligand: [3H] Diprenorphine); assay type: cell membranes, HEK293, Membrane; settings: hek293; Not Active = under 50% inhibition at 10 µM
Androgen receptor = target: T2, Androgen receptor (Rattus norvegicus, UniProt P15207); further: in other assays of this panel Not Active means under 50% inhibition at 10 µM
T2 sequence (P15207 whole entry): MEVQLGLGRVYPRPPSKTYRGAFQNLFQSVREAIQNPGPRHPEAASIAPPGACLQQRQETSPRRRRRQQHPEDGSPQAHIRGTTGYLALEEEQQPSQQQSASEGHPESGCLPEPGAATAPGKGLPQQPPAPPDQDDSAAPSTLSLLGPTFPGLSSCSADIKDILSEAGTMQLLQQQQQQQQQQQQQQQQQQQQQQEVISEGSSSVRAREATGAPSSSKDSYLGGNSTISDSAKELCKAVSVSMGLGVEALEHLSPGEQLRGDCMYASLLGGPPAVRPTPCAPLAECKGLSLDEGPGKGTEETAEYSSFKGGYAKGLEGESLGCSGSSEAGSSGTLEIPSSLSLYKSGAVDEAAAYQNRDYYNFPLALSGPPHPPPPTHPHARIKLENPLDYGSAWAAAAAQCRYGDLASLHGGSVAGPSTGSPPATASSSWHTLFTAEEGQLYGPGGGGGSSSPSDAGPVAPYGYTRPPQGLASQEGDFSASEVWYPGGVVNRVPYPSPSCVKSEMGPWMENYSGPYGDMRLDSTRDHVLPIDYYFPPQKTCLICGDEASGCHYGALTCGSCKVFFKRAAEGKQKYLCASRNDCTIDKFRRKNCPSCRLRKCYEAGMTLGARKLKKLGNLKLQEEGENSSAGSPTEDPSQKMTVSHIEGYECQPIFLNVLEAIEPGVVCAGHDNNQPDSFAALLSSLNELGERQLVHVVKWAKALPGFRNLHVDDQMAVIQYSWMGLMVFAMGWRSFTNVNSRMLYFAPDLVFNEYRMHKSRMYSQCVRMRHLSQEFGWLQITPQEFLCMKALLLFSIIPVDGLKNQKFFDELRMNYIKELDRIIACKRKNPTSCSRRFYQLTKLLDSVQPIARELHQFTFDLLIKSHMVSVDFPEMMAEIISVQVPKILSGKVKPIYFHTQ

Sequence of Kappa-type opioid receptor (P41145 whole entry): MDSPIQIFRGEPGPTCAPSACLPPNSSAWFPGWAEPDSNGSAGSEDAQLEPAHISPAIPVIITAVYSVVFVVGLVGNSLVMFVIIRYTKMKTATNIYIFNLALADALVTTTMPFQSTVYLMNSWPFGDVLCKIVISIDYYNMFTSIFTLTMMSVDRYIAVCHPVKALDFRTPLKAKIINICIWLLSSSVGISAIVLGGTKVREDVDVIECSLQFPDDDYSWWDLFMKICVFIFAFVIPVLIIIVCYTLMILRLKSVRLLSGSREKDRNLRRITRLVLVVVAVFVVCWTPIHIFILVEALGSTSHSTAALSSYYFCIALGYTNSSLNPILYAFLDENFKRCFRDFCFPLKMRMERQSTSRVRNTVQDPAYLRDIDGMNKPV
Sequence of 5-hydroxytryptamine receptor 4 (O70528 whole entry): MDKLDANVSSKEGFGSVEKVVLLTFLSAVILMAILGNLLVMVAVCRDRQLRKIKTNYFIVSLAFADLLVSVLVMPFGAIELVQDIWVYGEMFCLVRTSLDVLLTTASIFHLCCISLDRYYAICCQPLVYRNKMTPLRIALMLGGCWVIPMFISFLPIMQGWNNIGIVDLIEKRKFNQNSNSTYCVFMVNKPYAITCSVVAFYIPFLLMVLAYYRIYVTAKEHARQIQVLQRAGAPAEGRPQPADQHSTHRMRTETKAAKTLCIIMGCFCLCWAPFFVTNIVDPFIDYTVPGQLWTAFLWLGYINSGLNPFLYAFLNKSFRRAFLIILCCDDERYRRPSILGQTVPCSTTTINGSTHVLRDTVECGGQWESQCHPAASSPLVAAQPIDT

Row | Compound | IC50 [1] | IC50 [2] | Ki [2] | IC50 ([3]; reticulocytes) | IC50 [4] | IC50 (Androgen receptor) | IC50 ([3]; read-out: IC50) | Ki [1] | Ki ([3]; reticulocytes) | Ki (Androgen receptor)
1 | Nc1ccc2c3c(cccc13)C(=O)NC2=O | Not Active | Not Active | Not Active | Not Active | Not Active | Not Active |  |  |  | 
2 | O=c1cnn([C@@H]2O[C@H](CO)[C@@H](O)[C@H]2O)c(=O)[nH]1 [6-AZAURIDINE] | Not Active | Not Active | Not Active | Not Active | Not Active | Not Active |  |  |  | 
3 | CCC1(CCC(C)C)C(=O)NC(=O)NC1=O [AMOBARBITAL] | Not Active | Not Active | Not Active | Not Active | Not Active | Not Active |  |  |  | 
4 | CC(C(=O)O)c1ccc2oc(-c3ccc(Cl)cc3)nc2c1 (stereo not given) [BENOXAPROFEN] | Not Active | Not Active | Not Active | Not Active | Not Active | Not Active |  |  |  | 
5 | CN(C)[C@@H]1C(O)=C(C(N)=O)C(=O)[C@@]2(O)C(O)=C3C(=O)c4c(O)ccc(Cl)c4[C@@](C)(O)[C@H]3C[C@@H]12 [CHLORTETRACYCLINE] | Not Active | Not Active | Not Active | Not Active | Not Active | Not Active |  |  |  | 
6 | O=C1CN=C(c2ccccc2Cl)c2cc([N+](=O)[O-])ccc2N1 [CLONAZEPAM] | Not Active | Not Active | Not Active | Not Active | Not Active | Not Active |  |  |  | 
7 | C[C@@H]1CC[C@@]2(OC1)O[C@H]1[C@@H](O)[C@H]3[C@@H]4CC[C@H]5C[C@@H](O[C@@H]6O[C@H](CO)[C@H](O[C@@H]7O[C@H](CO)C(O)[C@H](O[C@@H]8OC[C@@H](O)[C@H](O)[C@H]8O)[C@H]7O[C@@H]7O[C@H](CO)[C@H](O)[C@H](O[C@@H]8O[C@H](CO)[C@@H](O)[C@H](O)[C@H]8O)[C@H]7O)[C@H](O)[C@H]6O)[C@H](O)C[C@]5(C)[C@H]4CC[C@]3(C)[C@H]1[C@@H]2C (stereo not given in full) [DIGITONIN] | Not Active | Not Active | Not Active | Not Active | Not Active | Not Active |  |  |  | 
8 | C[C@@H](CO)NC(=O)[C@@H]1C=C2c3cccc4[nH]cc(c34)C[C@H]2N(C)C1 [ERGONOVINE] | Not Active | Not Active | Not Active | Not Active |  | Not Active |  |  |  | 
9 | COc1ccc2c3c1O[C@H]1C[C@@H](O)C=C[C@@]31CCN(C)C2 [GALANTAMINE] | Not Active | Not Active | Not Active | Not Active | Not Active | Not Active |  |  |  | 
10 | CC(C)=CCC/C(C)=C/CO [GERANIOL] | Not Active | Not Active | Not Active | Not Active | Not Active | Not Active |  |  |  | 
11 | CC(C)NNC(=O)c1ccncc1 [IPRONIAZID] | Not Active | Not Active | Not Active | Not Active | Not Active | Not Active |  |  |  | 
12 | O=c1cc(N2CCOCC2)oc2c(-c3ccccc3)cccc12 [LY-294002] | Not Active | Not Active | Not Active | Not Active | Not Active | Not Active |  |  |  | 
13 | CCN(CC)CCOCCC1=CCC2CC1C2(C)C (stereo not given) [MYRTECAINE] | Not Active | Not Active | Not Active | Not Active | Not Active | Not Active |  |  |  | 
14 | CC(=O)O[C@H]1C(=O)[C@@]2(C)[C@H]([C@H](OC(=O)c3ccccc3)[C@]3(O)C[C@H](OC(=O)[C@H](O)[C@@H](NC(=O)c4ccccc4)c4ccccc4)C(C)=C1C3(C)C)[C@]1(OC(C)=O)CO[C@@H]1C[C@@H]2O [PACLITAXEL] | Not Active | Not Active | Not Active | Not Active | Not Active | Not Active |  |  |  | 
15 | C[n+]1ccc(-c2cc[n+](C)cc2)cc1.[Cl-].[Cl-] [PARAQUAT DICHLORIDE] | Not Active | Not Active | Not Active | Not Active |  | Not Active |  |  |  | 
16 | CC(C)NCC(O)COc1cccc2[nH]ccc12 (stereo not given) [PINDOLOL] | Not Active | Not Active | Not Active | Not Active | Not Active | Not Active |  |  |  | 
17 | CCCN(CCC)S(=O)(=O)c1ccc(C(=O)O)cc1 [PROBENECID] | Not Active | Not Active | Not Active | Not Active | Not Active | Not Active |  |  |  | 
18 | CCCNCC(O)COc1ccccc1C(=O)CCc1ccccc1 (stereo not given) [PROPAFENONE] | Not Active | Not Active | Not Active | Not Active | Not Active |  |  |  |  | 
19 | CCCOc1ccc(C(=O)OCCN(CC)CC)cc1N [PROPARACAINE] | Not Active | Not Active | Not Active | Not Active | Not Active |  |  |  |  | 
20 | CC(C)c1cccc(C(C)C)c1O [PROPOFOL] | Not Active | Not Active | Not Active |  |  | Not Active | 7.6 µM |  |  | 
21 | C[C@@H]1O[C@@H](O[C@@H]2C=C3CC[C@@H]4[C@H](CC[C@]5(C)[C@@H](c6ccc(=O)oc6)CC[C@]45O)[C@@]3(C)CC2)[C@H](O)[C@H](O)[C@H]1O [PROSCILLARIDIN] | Not Active | Not Active | Not Active | Not Active |  | Not Active |  |  |  | 
22 | Oc1cccc(O)c1O [PYROGALLOL] | Not Active | Not Active | Not Active |  | Not Active |  | 2.11 µM |  |  | 
23 | AURANOFIN | Not Active | Not Active | Not Active | Not Active |  | Not Active |  | Not Active | Not Active | Not Active
24 | GADOPENTETATE DIMEGLUMINE | Not Active | Not Active | Not Active | Not Active |  | Not Active |  | Not Active | Not Active | Not Active
25 | GENTAMICIN | Not Active | Not Active | Not Active | Not Active |  | Not Active |  | Not Active | Not Active | Not Active
26 | GRAMICIDIN | Not Active | Not Active | Not Active | Not Active |  | Not Active |  | Not Active | Not Active | Not Active
27 | NYSTATIN | Not Active | Not Active | Not Active | Not Active |  | Not Active |  | Not Active | Not Active | Not Active
